Measurements published in article PMC4225009, “Structure-activity-relationship study of N-acyl-N-phenylpiperazines as potential inhibitors of the Excitatory Amino Acid Transporters (EAATs): improving the potency of a micromolar screening Hit is not truism” (SpringerPlus, 2013).
Like-named read-outs stand apart in the source and are kept apart here.

Experiments:
human EAAT3 = target: T1, human EAAT3 (Homo sapiens, UniProt P43005); assay: [3H]-D-aspartate uptake assay at HEK293 cells stably expressing human EAAT3; assay type: cell-based
T1 construct: expressed in transfected cells
T1 sequence (P43005 1-524): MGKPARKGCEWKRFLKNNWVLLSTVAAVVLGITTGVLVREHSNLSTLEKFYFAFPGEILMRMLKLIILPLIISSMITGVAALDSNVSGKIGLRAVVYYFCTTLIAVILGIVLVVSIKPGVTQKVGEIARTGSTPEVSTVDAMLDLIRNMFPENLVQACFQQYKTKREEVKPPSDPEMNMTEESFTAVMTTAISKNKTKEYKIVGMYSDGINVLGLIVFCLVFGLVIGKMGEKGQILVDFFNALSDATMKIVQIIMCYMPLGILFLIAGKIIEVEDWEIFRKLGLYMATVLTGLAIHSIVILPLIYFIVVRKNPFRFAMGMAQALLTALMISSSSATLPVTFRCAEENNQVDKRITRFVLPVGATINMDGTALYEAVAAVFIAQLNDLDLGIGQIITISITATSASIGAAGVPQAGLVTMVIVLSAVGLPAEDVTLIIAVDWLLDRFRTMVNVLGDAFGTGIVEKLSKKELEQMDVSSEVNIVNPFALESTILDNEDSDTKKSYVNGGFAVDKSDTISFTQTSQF
Description: (§1) In total, […] piperazine analogs 2.1-2.40 and 3.1-3.12 were characterized pharmacologically at stable HEK293 cells expressing human EAAT1-3 in a [^3H]-D-aspartate uptake assay, (Jensen & Bräuner-Osborne [2004]) and the results are summarized in Table 1 and Table 2. […] Usually, such findings would lead to the conclusion that the bicyclo-[2.2.1]-heptanyl group occupies a promiscuous hydrophobic pocket, which could be optimized for increased potency. However, upon increasing or decreasing the hydrophobic bulk and/or flexibility, a clear drop in potency was observed (analogs 2.1-2.17, Table 1). […] These findings could open up for the hypothesis that the pocket is indeed not hydrophobic but instead hydrophilic in nature. Upon binding of the hydrophobic alkane group, water molecules are forced out and ligand binding is entropically driven rather than enthalpically. Thus analogs 2.18-2.31, which comprise a hydrophobic group, could be potential inhibitors.
(§2) Analogs 2.22-2.31, 2.36-2.40, 3.3, 3.4, 3.6 and 3.12 were obtained as 5 mg portions pre-dissolved in DMSO from ChemBridge corporation and used directly in the [3H]-Asp-uptake assay.

human EAAT1 = target: T2, human EAAT1 (Homo sapiens, UniProt P43003); assay: [3H]-D-aspartate uptake assay at HEK293 cells stably expressing human EAAT1; assay type: cell-based
T2 construct: expressed in transfected cells
T2 sequence (P43003 whole entry): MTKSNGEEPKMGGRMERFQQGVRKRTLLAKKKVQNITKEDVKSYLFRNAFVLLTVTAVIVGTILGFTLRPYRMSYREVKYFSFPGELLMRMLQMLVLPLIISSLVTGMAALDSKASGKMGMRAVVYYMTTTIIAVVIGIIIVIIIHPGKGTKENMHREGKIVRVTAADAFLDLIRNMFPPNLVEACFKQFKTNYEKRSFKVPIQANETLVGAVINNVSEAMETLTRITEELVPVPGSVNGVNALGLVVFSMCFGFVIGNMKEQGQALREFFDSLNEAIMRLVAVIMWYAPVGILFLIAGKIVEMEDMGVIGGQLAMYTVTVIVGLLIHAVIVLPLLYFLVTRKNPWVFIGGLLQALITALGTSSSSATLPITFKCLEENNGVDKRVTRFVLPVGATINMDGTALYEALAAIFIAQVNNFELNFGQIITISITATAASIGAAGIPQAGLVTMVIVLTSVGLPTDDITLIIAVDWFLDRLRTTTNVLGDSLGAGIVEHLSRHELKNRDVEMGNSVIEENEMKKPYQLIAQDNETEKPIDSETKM
Description: as §1, §2

human EAAT2 = target: T3, human EAAT2 (Homo sapiens, UniProt P43004); assay: [3H]-D-aspartate uptake assay at HEK293 cells stably expressing human EAAT2; assay type: cell-based
T3 construct: expressed in transfected cells
T3 sequence (P43004 whole entry): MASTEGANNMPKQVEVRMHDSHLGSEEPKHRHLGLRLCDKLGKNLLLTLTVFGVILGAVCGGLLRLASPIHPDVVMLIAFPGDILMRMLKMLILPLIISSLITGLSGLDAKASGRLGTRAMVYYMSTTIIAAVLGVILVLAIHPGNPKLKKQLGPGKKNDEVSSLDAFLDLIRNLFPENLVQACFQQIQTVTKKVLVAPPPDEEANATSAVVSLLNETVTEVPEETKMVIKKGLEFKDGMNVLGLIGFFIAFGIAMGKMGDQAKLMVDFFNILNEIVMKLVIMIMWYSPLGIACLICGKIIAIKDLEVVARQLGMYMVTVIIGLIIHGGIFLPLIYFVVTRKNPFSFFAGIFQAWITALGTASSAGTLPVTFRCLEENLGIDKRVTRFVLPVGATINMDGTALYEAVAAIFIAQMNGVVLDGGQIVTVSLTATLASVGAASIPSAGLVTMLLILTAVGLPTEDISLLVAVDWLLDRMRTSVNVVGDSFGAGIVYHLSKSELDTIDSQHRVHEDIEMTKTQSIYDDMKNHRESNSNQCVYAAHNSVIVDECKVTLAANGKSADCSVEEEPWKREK
Description: as §1, §2

human EAAT1-3 = assay: [3H]-D-aspartate uptake assay, statements made for EAAT1-3 together; assay type: cell-based; settings: for drop in inhibitory potency across the subtypes: relative to the lead, EAAT1-3; for inhibitory activity at EAAT1-3 (in words): HEK293 cells expressing human EAAT1-3, [3H]-D-aspartate uptake
Description: as §1, §2

[1] = D-aspartate uptake, HEK293 cells stably expressing human EAAT3, analogs 3.1-3.12 (Table 2), read-out: EAAT3 IC50
[2] = D-aspartate uptake, HEK293 cells stably expressing human EAAT1, analogs 3.1-3.12 (Table 2), read-out: EAAT1 IC50
[3] = D-aspartate uptake, HEK293 cells stably expressing human EAAT2, analogs 3.1-3.12 (Table 2), read-out: EAAT2 IC50
[4] = [3H]-D-aspartate uptake, HEK293 cells stably expressing human EAAT3, analogs 1 and 2.1-2.40 (Table 1), read-out: EAAT3 IC50
[5] = [3H]-D-aspartate uptake, HEK293 cells stably expressing human EAAT1, analogs 1 and 2.1-2.40 (Table 1), read-out: EAAT1 IC50
[6] = [3H]-D-aspartate uptake, HEK293 cells stably expressing human EAAT2, analogs 1 and 2.1-2.40 (Table 1), read-out: EAAT2 IC50

SMILES | IC50 (human EAAT3; [1]) [µM] | IC50 (human EAAT1; [2]) [µM] | melting point | IC50 (human EAAT2; [3]) [µM] | IC50 (human EAAT3) [µM] | IC50 (human EAAT1) [µM] | IC50 (human EAAT2) [µM] | IC50 (human EAAT3; [4]) [µM] | IC50 (human EAAT1; [5]) [µM] | drop in inhibitory potency across the subtypes (human EAAT1-3) | IC50 (human EAAT2; [6]) [µM] | inhibitory activity at EAAT1-3 (in words) (human EAAT1-3)
O=C(C1CC2CCC1C2)N1CCN(c2cccc(O)c2)CC1 (racemic) [(±)-endo-exo-3.8, (±)-endo-exo-Bicyclo[2.2.1]heptan-2-yl(4-(3-hydroxyphenyl)piperazin-1-yl)methanone] | > 300 | > 300 | 187 to 189 °C (dec.) | > 300 |  |  |  |  |  |  |  | 
O=C(N1CCN(c2cccc(C(F)(F)F)c2)CC1)C1(c2ccccc2)CCCC1 [2.14, 1-Phenylcyclopentyl-(4-(3-(trifluoromethyl)phenyl)piperazin-1-yl)methanone] |  |  | 77 to 79 °C |  | > 300 | > 300 | > 300 |  |  |  |  | 
O=C(c1ccccc1)N1CCN(c2cccc(C(F)(F)F)c2)CC1 [2.11, Phenyl(4-(3-(trifluoromethyl)phenyl)piperazin-1-yl)methanone] |  |  |  |  |  |  |  | > 100 | ~150 | 5-15 fold | > 100 | 
O=C(C1CC2CCC1C2)N1CCN(c2ccccc2)CC1 (racemic) [(±)-endo-exo-3.1, Bicyclo[2.2.1]heptan-2-yl(4-phenylpiperazin-1-yl)methanone] | > 300 | > 300 |  | > 300 |  |  |  |  |  |  |  | loss of inhibitory activity
O=C(OCc1ccccc1)N1CCN(c2cccc(C(F)(F)F)c2)CC1 [2.32, Benzyl 4-(3-(trifluoromethyl)phenyl)piperazine-1-carboxylate] |  |  |  |  |  |  |  | > 300 | > 1000 |  | > 300 | neither the carbamate 2.32 nor the sulfonamide 2.33 analog displayed inhibitory activity
O=C(c1ccc2c(c1)OCO2)N1CCN(c2cccc(C(F)(F)F)c2)CC1 [2.12, Benzo[d][1,3]dioxol-5-yl(4-(3-(trifluoromethyl)phenyl)piperazin-1-yl)methanone] |  |  | 87 to 89 °C |  |  |  |  | > 100 | > 100 |  | > 100 | 
O=S(=O)(c1ccccc1)N1CCN(c2cccc(C(F)(F)F)c2)CC1 [2.33, 1-(Phenylsulfonyl)-4-(3-(trifluoromethyl)phenyl)piperazine] |  |  | 109 to 111 °C (dec.) |  |  |  |  | > 1000 | > 1000 |  | > 300 | neither the carbamate 2.32 nor the sulfonamide 2.33 analog displayed inhibitory activity
O=C(C1CC2CCC1C2)N1CCN(c2ccc(C(F)(F)F)cc2)CC1 (racemic) [(±)-endo-exo-3.2, (±)-endo-exo-Bicyclo[2.2.1]heptan-2-yl(4-(4-(trifluoromethyl)phenyl)piperazin-1-yl)methanone] | > 300 | > 300 | 126 to 127 °C (dec.) | > 300 |  |  |  |  |  |  |  | loss of inhibitory activity
O=C(C1CCCCC1)N1CCN(c2cccc(C(F)(F)F)c2)CC1 [2.3, Cyclohexyl(4-(3-(trifluoromethyl)phenyl)piperazin-1-yl)methanone] |  |  |  |  |  |  |  | ~100 | ~100 | 5-15 fold | ~100 | 
